Assay results as given in US20110245316A1, “PREVENTION OR DELAY OF ONSET OF ORAL MUCOSITIS” (SCICLONE PHARMACEUTICALS, INC., priority 2010, published 2011).

Key:
[1] = test system: patients receiving CT/RT for head and neck cancer; experiment: Phase 2 trial: safety and tolerability; assay type: in vivo, human; conditions: 0.02 or 0.1 mg/kg on each radiation day for up to 7 weeks
From the text: OM is a painful, debilitating, and costly toxicity of different chemoradiotherapy (CT/RT) regimens used to treat head and neck cancer. This trial is a phase 2, randomized, double-blind, dose-ranging, placebo-controlled three-arm study in patients receiving CT/RT for the treatment of head and neck cancer, to assess the safety and tolerability of γ-D-glutamyl-L-tryptophan (SCV-07) as well as its efficacy in delaying the onset of severe OM as assessed by the WHO Oral Mucositis Scale.
59 eligible patients with recently diagnosed, treatment naïve, pathologically-confirmed, non-metastatic squamous cell carcinoma of the oral cavity, oropharynx, hypopharynx or larynx were enrolled and treated with a concomitant regimen of CT/RT consisting of a continuous course of external beam irradiation (IMRT eligible) with a minimum cumulative dose of 50 Gray (Gy) and cisplatin monotherapy administered using standard weekly or tri-weekly dosing regimens (80-100 mg/m^2 administered on Days 0, 21 and 42) or weekly (30-40 mg/m^2). At least two ‘at risk’ intraoral sites were included in the radiation fields and received a cumulative RT dose of at least 50 Gy. Subjects were equally randomized to receive either placebo or one of two doses of γ-D-glutamyl-L-tryptophan (0.02 or 0.1 mg/kg) on each radiation day for up to 7 weeks.

[2] = test system: human head and neck cancer (HNC) lines; experiment: Xenograft studies: CRT anti-tumor response; assay type: in vivo

Compound: N[C@H](CCC(=O)N[C@@H](Cc1c[nH]c2ccccc12)C(=O)O)C(=O)O [SCV-07, γ-D-glutamyl-L-tryptophan]
- safety and tolerability [1]: safe and well tolerated with no drug-related serious adverse events reported
- safety and tolerability ([1]; listed as γ-D-glutamyl-L-tryptophan): safe and well tolerated
- impact on CRT anti-tumor response [2]: did not impact CRT anti-tumor response
